The values that follow come from patent US8871753B2, “Macrocyclic compounds and their use as kinase inhibitors” (Incyte Corporation, priority 2008, dated 2014).

What all share (type): biochemical
Assay [1] addresses TYK2 (Homo sapiens, UniProt P29597). Briefly: TYK2 kinase inhibition (Table A1).
Assay [2] deals with T1, human JAK2 (a.a. 828-1132) (Homo sapiens, UniProt O60674).
T1 construct: JAK2 (a.a. 828-1132); His tag (N); made in house; host or cells: insect cells (baculovirus)
The experiment in a line: In vitro JAK kinase assay (HTRF, phosphorylation of a biotinylated peptide), JAK2. Summed up: (§1)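 Phosphorylation of a biotinylated peptide by the JAK kinase domain, detected by HTRF with Eu-Py20 and SA-APC. ATP was 90 μM for JAK1, 30 μM for JAK2 and 3 μM for JAK3. Reactions ran 1 h at room temperature and were stopped with EDTA, followed by 40 min antibody binding.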
(In general: TR-FRET usually uses a lanthanide donor and a delayed reading to cut background.)

Assay [3] addresses T2, human JAK3 (a.a. 781-1124) (Homo sapiens, UniProt P52333).
T2 construct: JAK3 (a.a. 781-1124); His tag (N); made in house; host or cells: insect cells (baculovirus)
The experiment in a line: In vitro JAK kinase assay (HTRF, phosphorylation of a biotinylated peptide), JAK3. The gist of the method:
as §1

The target of assay [4] is T3, Recombinant Human Anaplastic Lymphoma Kinase (Homo sapiens, UniProt Q9UM73).
T3 construct: purchased Invitrogen, Carlsbad, Calif
T3 sequence (Q9UM73 19-1620): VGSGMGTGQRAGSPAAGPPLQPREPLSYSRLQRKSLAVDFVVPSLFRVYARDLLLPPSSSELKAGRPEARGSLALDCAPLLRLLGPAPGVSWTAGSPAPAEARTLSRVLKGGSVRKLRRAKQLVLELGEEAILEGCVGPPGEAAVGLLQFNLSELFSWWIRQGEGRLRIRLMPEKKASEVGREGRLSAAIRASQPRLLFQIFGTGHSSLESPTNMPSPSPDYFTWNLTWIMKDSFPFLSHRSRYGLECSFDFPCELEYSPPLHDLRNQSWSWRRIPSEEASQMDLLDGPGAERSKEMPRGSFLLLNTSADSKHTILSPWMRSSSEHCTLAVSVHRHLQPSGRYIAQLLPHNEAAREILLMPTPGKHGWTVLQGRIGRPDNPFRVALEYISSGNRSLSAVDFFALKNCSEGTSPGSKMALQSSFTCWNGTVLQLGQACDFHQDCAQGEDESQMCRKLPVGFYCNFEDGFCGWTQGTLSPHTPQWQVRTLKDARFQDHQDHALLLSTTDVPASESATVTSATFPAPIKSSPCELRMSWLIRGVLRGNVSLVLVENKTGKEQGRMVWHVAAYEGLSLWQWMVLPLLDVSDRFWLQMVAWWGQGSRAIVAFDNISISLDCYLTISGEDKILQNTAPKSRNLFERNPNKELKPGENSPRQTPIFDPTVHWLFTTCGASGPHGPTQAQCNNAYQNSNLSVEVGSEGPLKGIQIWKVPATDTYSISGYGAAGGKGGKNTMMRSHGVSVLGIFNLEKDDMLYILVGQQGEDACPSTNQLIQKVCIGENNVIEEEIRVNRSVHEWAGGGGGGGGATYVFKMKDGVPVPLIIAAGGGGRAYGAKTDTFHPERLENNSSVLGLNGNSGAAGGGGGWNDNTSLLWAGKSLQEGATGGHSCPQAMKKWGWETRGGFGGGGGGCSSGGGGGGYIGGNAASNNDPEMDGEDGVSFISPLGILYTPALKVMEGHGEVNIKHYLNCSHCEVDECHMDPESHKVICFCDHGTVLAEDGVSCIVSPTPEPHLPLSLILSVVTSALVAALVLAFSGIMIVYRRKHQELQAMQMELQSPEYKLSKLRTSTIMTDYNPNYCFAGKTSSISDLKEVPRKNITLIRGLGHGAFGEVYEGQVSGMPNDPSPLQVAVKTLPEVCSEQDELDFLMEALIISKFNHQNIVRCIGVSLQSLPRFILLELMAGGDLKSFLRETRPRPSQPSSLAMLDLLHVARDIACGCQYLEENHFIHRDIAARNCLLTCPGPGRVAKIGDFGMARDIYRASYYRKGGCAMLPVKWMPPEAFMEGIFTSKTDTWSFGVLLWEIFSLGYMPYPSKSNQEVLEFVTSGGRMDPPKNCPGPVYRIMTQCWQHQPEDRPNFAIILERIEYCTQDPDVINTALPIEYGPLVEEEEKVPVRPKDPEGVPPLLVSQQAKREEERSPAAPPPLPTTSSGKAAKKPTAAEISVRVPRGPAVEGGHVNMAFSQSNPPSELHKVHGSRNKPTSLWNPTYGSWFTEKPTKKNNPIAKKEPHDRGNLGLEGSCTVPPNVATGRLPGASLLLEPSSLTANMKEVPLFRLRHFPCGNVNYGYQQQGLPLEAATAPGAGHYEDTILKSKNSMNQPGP
The experiment in a line: ALK HTRF kinase assay. Particulars: for ALK % of inhibition at a concentration of 500 nM or 1 mM: percentage inhibition of the example compound at a concentration of 500 nM or 1 mM (not specified which). Summed up: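 Biotinylated peptide substrate, recombinant human ALK; detection via europium-chelate antibody to phosphotyrosine paired with streptavidin-APC. Potency expressed as IC50 from four-parameter curve fitting.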

Assay [5] deals with T4, human JAK1 (a.a. 837-1142) (Homo sapiens, UniProt P23458).
T4 construct: human JAK1 (a.a. 837-1142); His tag (N); made in house; host or cells: insect cells (baculovirus)
T4 sequence (P23458 849-1154): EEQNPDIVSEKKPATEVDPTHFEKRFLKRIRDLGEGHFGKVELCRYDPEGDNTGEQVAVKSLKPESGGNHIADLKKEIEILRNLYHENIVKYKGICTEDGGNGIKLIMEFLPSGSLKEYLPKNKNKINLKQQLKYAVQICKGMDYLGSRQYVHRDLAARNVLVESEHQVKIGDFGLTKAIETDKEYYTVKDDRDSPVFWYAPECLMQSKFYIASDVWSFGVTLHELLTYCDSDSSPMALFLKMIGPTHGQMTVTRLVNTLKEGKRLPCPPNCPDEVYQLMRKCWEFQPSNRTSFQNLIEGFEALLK
The experiment in a line: In vitro JAK kinase assay (HTRF, phosphorylation of a biotinylated peptide), JAK1. The conditions noted are these: read-out: JAK1 IC50. Summed up:
as §1

The structures appear in SMILES notation. Structures can show the parent of a compound that is named as a salt. Where two headings read alike, the source gives them in different places.

T1 sequence (O60674 828-1132): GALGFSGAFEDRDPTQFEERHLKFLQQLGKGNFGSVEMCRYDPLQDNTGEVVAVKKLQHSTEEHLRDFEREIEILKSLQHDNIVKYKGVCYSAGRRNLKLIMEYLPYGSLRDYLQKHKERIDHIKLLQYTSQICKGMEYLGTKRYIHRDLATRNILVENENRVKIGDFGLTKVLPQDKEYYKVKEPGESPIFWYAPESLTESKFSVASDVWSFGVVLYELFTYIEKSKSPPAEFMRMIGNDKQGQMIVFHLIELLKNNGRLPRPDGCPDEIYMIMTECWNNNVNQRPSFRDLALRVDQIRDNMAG
T2 sequence (P52333 781-1124): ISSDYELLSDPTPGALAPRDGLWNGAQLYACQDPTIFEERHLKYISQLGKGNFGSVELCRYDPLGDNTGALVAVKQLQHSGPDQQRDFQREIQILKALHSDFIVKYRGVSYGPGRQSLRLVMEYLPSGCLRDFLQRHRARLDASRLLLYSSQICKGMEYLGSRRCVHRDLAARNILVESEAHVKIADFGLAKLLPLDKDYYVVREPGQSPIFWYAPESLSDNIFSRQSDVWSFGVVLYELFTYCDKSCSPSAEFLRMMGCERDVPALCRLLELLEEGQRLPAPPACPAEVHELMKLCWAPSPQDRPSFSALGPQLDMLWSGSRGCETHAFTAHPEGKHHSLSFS
TYK2, sequence (P29597 whole entry): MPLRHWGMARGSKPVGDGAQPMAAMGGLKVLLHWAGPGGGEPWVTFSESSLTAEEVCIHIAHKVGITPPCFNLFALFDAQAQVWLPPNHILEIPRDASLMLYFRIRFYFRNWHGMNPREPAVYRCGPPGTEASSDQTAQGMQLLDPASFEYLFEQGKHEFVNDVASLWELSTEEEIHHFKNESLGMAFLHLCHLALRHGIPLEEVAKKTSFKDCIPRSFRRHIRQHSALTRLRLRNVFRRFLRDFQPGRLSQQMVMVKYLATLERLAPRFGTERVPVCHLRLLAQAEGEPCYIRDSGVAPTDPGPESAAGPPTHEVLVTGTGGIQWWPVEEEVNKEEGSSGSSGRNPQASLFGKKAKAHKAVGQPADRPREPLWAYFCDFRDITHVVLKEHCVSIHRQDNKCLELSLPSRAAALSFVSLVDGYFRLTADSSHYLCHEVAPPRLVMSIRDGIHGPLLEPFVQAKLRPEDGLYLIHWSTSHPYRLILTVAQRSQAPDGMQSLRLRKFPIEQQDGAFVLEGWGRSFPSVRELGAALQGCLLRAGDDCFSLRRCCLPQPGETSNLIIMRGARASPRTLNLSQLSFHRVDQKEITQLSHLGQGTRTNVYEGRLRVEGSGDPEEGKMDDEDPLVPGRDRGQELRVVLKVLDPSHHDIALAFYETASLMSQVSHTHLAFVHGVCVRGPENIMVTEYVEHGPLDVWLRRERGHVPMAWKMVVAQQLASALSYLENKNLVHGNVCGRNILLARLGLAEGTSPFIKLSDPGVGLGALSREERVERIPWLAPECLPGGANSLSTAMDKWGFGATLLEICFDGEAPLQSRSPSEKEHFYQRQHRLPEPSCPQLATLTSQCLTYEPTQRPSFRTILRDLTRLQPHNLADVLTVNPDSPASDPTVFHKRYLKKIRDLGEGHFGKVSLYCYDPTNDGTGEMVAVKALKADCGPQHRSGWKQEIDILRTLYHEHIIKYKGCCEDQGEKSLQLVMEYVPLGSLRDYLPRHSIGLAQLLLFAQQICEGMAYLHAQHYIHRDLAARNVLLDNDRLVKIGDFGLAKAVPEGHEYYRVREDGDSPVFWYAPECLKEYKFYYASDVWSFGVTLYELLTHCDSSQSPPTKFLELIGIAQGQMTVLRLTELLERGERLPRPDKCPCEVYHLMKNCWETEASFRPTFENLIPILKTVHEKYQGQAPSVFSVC

For the compound `CN(Cc1ccc2cc1CCc1cncc(c1)Nc1ncc(Cl)c(n1)N2)C(=O)C1CCN(c2ncccn2)CC1` [Example B338, N-{[6-Chloro-2,4,8,18,22-pentaazatetracyclo[14.3.1.1(3,7).1(9,13)]docosa-1(20),3(22),4,6,9(21),10,12,16,18-nonaen-12-yl]methyl}-N-methyl-1-pyrimidin-2-ylpiperidine-4-carboxamide tris(trifluoroacetate)], the IC50 was greater than 200 nM in assay [1] (Table B1), 130 nM in assay [2] (Table B1), greater than 200 nM in assay [3] (Table B1) and 70 nM in assay [5] (Table B1). Besides, in assay [4], the “ALK % of inhibition at a concentration of 500 nM or 1 mM” value (shortened to “ALK % of inhibition”) is listed as 21%.
In the case of `CN(Cc1ccc2cc1CCc1cncc(c1)Nc1ncc(Cl)c(n1)N2)CC1CCNCC1` [Example B339, 1-[6-Chloro-2,4,8,18,22-pentaazatetracyclo[14.3.1.1(3,7).1(9,13)]docosa-1(20),3(22),4,6,9(21),10,12,16,18-nonaen-12-yl]-N-methyl-N-(piperidin-4-ylmethyl)methanamine Tetrahydrochloride], the IC50 is greater than 400 nM in assay [1] (Table B1), greater than 400 nM in assay [2] (Table B1), greater than 400 nM in assay [3] (Table B1) and 172 nM in assay [5] (Table B1). Further, the “ALK % of inhibition” value in assay [4] was determined as 41%.
Regarding `CN(Cc1ccc2cc1CCc1cncc(c1)Nc1ncc(Cl)c(n1)N2)CC1CCN(S(=O)(=O)c2ccccc2C#N)CC1` [Example B340, 2-[(4-{[{[6-Chloro-2,4,8,18,22-pentaazatetracyclo[14.3.1.1(3,7).1(9,13)]docosa-1(20),3(22),4,6,9(21),10,12,16,18-nonaen-12-yl]methyl}(methyl)amino]methyl}piperidin-1-yl)sulfonyl]benzonitrile tris(trifluoroacetate)], the IC50 in assay [1] (Table B1) was 180 nM; in assay [2] (Table B1), 41 nM; in assay [3] (Table B1) it was greater than 400 nM; in assay [5] (Table B1), 1.2 nM. In addition, the “ALK % of inhibition” value in assay [4] was 24%.
In the same order, the values of `CN(Cc1ccc2cc1CCc1cncc(c1)Nc1ncc(Cl)c(n1)N2)CC1CCN(S(=O)(=O)c2ccccc2)CC1` [Example B341, 1-[6-Chloro-2,4,8,18,22-pentaazatetracyclo[14.3.1.1(3,7).1(9,13)]docosa-1(20),3(22),4,6,9(21),10,12,16,18-nonaen-12-yl]-N-methyl-N-{[1-(phenylsulfonyl)piperidin-4-yl]methyl}methanamine tris(trifluoroacetate)] are greater than 400 nM, 146 nM, greater than 400 nM, 13 nM and 27%.
As to `Cc1oncc1S(=O)(=O)N1CCC(CN(C)Cc2ccc3cc2CCc2cncc(c2)Nc2ncc(Cl)c(n2)N3)CC1` [Example B342, 1-[6-Chloro-2,4,8,18,22-pentaazatetracyclo[14.3.1.1(3,7).1(9,13)]docosa-1(20),3(22),4,6,9(21),10,12,16,18-nonaen-12-yl]-N-methyl-N-({1-[(5-methylisoxazol-4-yl)sulfonyl]piperidin-4-yl}methyl)methanamine tris(trifluoroacetate)], the half-maximal inhibitory concentration (IC50) in assay [1] (Table B1) was 226 nM; in assay [2] (Table B1), 60 nM; in assay [3] (Table B1), greater than 400 nM; in assay [5] (Table B1), 7.7 nM. For the same compound, in assay [4], the “ALK % of inhibition” value is listed as 37%.
On to `Cc1nc(S(=O)(=O)N2CCC(CN(C)Cc3ccc4cc3CCc3cncc(c3)Nc3ncc(Cl)c(n3)N4)CC2)cn1C` [Example B343, 1-[6-Chloro-2,4,8,18,22-pentaazatetracyclo[14.3.1.1(3,7).1(9,13)]docosa-1(20),3(22),4,6,9(21),10,12,16,18-nonaen-12-yl]-N-({1-[(1,2-dimethyl-1H-imidazol-4-yl)sulfonyl]piperidin-4-yl}methyl)-N-methylmethanamine tris(trifluoroacetate)], for which the IC50 in assay [1] (Table B1) was 180 nM; in assay [2] (Table B1), 130 nM; in assay [3] (Table B1), greater than 400 nM; in assay [5] (Table B1) it was 3.8 nM. Further, in assay [4], the “ALK % of inhibition” value came out at 42%.
In the same order, the values of `Cc1cc(C(=O)N2CCC(CN(C)Cc3ccc4cc3CCc3cncc(c3)Nc3ncc(Cl)c(n3)N4)CC2)no1` [Example B344, 1-[6-Chloro-2,4,8,18,22-pentaazatetracyclo[14.3.1.1(3,7).1(9,13)]docosa-1(20),3(22),4,6,9(21),10,12,16,18-nonaen-12-yl]-N-methyl-N-({1-[(5-methylisoxazol-3-yl)carbonyl]piperidin-4-yl}methyl)methanamine tris(trifluoroacetate)] are 276 nM, 90 nM, greater than 400 nM, 14 nM and 43%.
Take `CN(Cc1ccc2cc1CCc1cncc(c1)Nc1ncc(Cl)c(n1)N2)CC1CCN(C(=O)c2ccno2)CC1` [Example B345, 1-[6-Chloro-2,4,8,18,22-pentaazatetracyclo[14.3.1.1(3,7).1(9,13)]docosa-1(20),3(22),4,6,9(21),10,12,16,18-nonaen-12-yl]-N-{[1-(isoxazol-5-ylcarbonyl)piperidin-4-yl]methyl}-N-methylmethanamine tris(trifluoroacetate)]: the concentration for half-maximal inhibition (IC50) was 98 nM in assay [1] (Table B1), 179 nM in assay [2] (Table B1), greater than 400 nM in assay [3] (Table B1) and 17 nM in assay [5] (Table B1). Besides, in assay [4], the “ALK % of inhibition” value turned out to be 40%.
The corresponding values for `CC(=O)N1CCC(CN(C)Cc2ccc3cc2CCc2cncc(c2)Nc2ncc(Cl)c(n2)N3)CC1` [Example B346, 1-(1-Acetylpiperidin-4-yl)-N-{[6-chloro-2,4,8,18,22-pentaazatetracyclo[14.3.1.1(3,7).1(9,13)]docosa-1(20),3(22),4,6,9(21),10,12,16,18-nonaen-12-yl]methyl}-N-methylmethanamine tris(trifluoroacetate)] are greater than 400 nM, 91 nM, greater than 400 nM, 13 nM and 38%.
The corresponding values for `Cc1ncoc1C(=O)N1CCC(CN(C)Cc2ccc3cc2CCc2cncc(c2)Nc2ncc(Cl)c(n2)N3)CC1` [Example B347, 1-[6-Chloro-2,4,8,18,22-pentaazatetracyclo[14.3.1.1(3,7).1(9,13)]docosa-1(20),3(22),4,6,9(21),10,12,16,18-nonaen-12-yl]-N-methyl-N-({1-[(4-methyl-1,3-oxazol-5-yl)carbonyl]piperidin-4-yl}methyl)methanamine tris(trifluoroacetate)] are greater than 400 nM, 371 nM, greater than 400 nM, 58 nM and 45%.
In the same order, the values of `CN(Cc1ccc2cc1CCc1cncc(c1)Nc1ncc(Cl)c(n1)N2)CC1CCN(C(=O)Nc2cccnc2)CC1` [Example B348, 4-{[{[6-Chloro-2,4,8,18,22-pentaazatetracyclo[14.3.1.1(3,7).1(9,13)]docosa-1(20),3(22),4,6,9(21),10,12,16,18-nonaen-12-yl]methyl}(methyl)amino]methyl}-N-pyridin-3-ylpiperidine-1-carboxamide tetrakis(trifluoroacetate)] are greater than 400 nM, 45 nM, greater than 400 nM, 3.4 nM and 47%.
As for `Cc1occc1NC(=O)N1CCC(CN(C)Cc2ccc3cc2CCc2cncc(c2)Nc2ncc(Cl)c(n2)N3)CC1` [Example B349, 4-{[{[6-Chloro-2,4,8,18,22-pentaazatetracyclo[14.3.1.1(3,7).1(9,13)]docosa-1(20),3(22),4,6,9(21),10,12,16,18-nonaen-12-yl]methyl}(methyl)amino]methyl}-N-(2-methyl-3-furyl)piperidine-1-carboxamide tris(trifluoroacetate)], the IC50 was 300 nM in assay [1] (Table B1), 150 nM in assay [2] (Table B1), 371 nM in assay [3] (Table B1) and 11 nM in assay [5] (Table B1). The “ALK % of inhibition” value in assay [4] turned out to be 61%.
In the same order, the values of `Clc1cnc2nc1Nc1ccc(-c3cn[nH]c3)c(c1)CCc1cncc(c1)N2` [Example B350, 6-Chloro-12-(1H-pyrazol-4-yl)-2,4,8,18,22-pentaazatetracyclo[14.3.1.1(3,7).1(9,13)]docosa-1(20),3(22),4,6,9(21),10,12,16,18-nonaene tris(trifluoroacetate)] are 244 nM, 66 nM, greater than 400 nM, 90 nM and 58%.
Consider `O=C1Nc2cccc(c2)Nc2ncc(Cl)c(n2)Nc2cccc1c2` [Example C1, 6-Chloro-2,4,8,15,22-pentaazatetracyclo[14.3.1.1(3,7).1(9,13)]docosa-1(20),3(22),4,6,9(21),10,12,16,18-nonaen-14-one hydrochloride], for which the IC50 in assay [1] was greater than 1000 nM; in assay [2], 900 nM; in assay [3], greater than 1000 nM; in assay [4] it was greater than 10000 nM; in assay [5] it was greater than 1000 nM.

One may read the IC50 as the midpoint of a concentration-inhibition curve.
